# Results as given in US20030171393A1, “Drugs for sex dysfunctions” (priority 2000, published 2003).
# Counter-ions that a name gives are not always drawn.
# Legend:
# cavernous body = assay: Relaxation in vitro of cavernous body tissue precontracted with phenylephrine; assay type: cell-based, White New Zealand rabbits; details: for Cavernous body % relaxation: tissue precontracted with phenylephrine 10 μM; for Power ratio: ratio between myorelaxing effect on cavernous body and effect on aorta
# Excerpt: (§1) The relaxing effect of the tested drugs on carvernous body tissues has been evaluated with experiments in vitro as a measure of the inhibiting action on the impotence, and on aorta tissues as expression of the undesired hypotensive effect.
# (§2) White New Zealand rabbits were sacrificed, cavernous body and aorta specimens were taken and suitably prepared for the determination of the myorelaxing activity in vitro, according to the procedure described by J. Jeremy (Br. J. Urology 79,958-63,1997).
# (§3) The tissues were precontracted with phenylephrine (10 μM) and the relaxation was determined in the presence of the compounds object of the invention.
# (§4) The 2-(acetyloxy)benzoic acid 6-(nitroxy methyl)-2-methylpyridyl ester hydrochloride (NCX 4050) is prepared as described in patent application PCT/EP 00/01454 (Ex. 1) , the sildenafil nitrate has been prepared as described in patent application WO 99/67231 (Ex. 3). The products used in the experiment were dissolved in dimethylsulphoxide, except sodium nitroprussiate which was dissolved in distilled water.
# aorta = assay: Relaxation in vitro of aorta tissue precontracted with phenylephrine (undesired hypotensive effect); assay type: cell-based, White New Zealand rabbits; details: tissue precontracted with phenylephrine 10 μM
# Excerpt: as §1, §2, §3, §4
# [1] = tested on: aorta tissues pretreated with sodium nitroprussiate; assay: Aorta relaxation in vitro in the presence of the NO-donor sodium nitroprussiate; assay type: cell-based, white New Zealand rabbits; details: 10^−7 M; for Aorta relaxation: strips first treated with sodium nitroprussiate 10^−7 M, percentage with respect to the initial sodium nitroprussiate treatment
# Method: The experiment was carried out as described in the previous Example, by using aorta tissues taken from white New Zealand rabbits.
Compound,Cavernous body % relaxation (cavernous body; concentration 10^-6 M) [%],Power ratio (cavernous body; concentration 10^-6 M),Aorta % (aorta; concentration 10^-6 M) [%],Cavernous body % relaxation (cavernous body; concentration 3 × 10^-5 M) [%],Aorta % (aorta; concentration 3 × 10^-5 M) [%],Aorta relaxation [1] [%],"Power ratio (cavernous body; concentration 10^-6 M, listed as sildenafil nitrate)","Strengthening of the relaxing effect induced by sodium nitroprussiate (hypotensive effect), in words ([1]; aorta strips pretreated with sodium nitroprussiate 10^−7 M)"
"CC(=O)Oc1ccccc1C(=O)Oc1ccc(CO[N+](=O)[O-])nc1C.Cl [NCX 4050, 2-(acetyloxy)benzoic acid 6-(nitroxymethyl)-2-methylpyridyl ester hydrochloride]",80,1,80,,,,,
"CCCc1nn(C)c2c(=O)[nH]c(-c3cc(S(=O)(=O)N4CCN(C)CC4)ccc3OCC)nc12 [Sildenafil Citrate, sildenafil citrate, reference compound]",,,,50,75,170,,
sildenafil nitrate,100,5,20,,,120,clearly in favour of the myorelaxing effect,lower strengthening of the relaxing effect induced by sodium nitroprussiate compared with the sildenafil citrate
